19 compounds from article PMC12022909, “A Multicomponent Reaction-Based Platform Opens New Avenues in Aryl Hydrocarbon Receptor Modulation” (ACS Central Science, 2025) can be followed below.

In data set [1] the target is T1, aryl hydrocarbon receptor (AhR) (Homo sapiens, UniProt P35869).
T1 construct: AhR-dependent reporter gene activity was determined in human HepG2 cells stably transfected with an XRE; endogenous in cells; host or cells: XRE-HepG2 (human HepG2 hepatoma cells stably carrying an XRE-luciferase plasmid)
T1 sequence (P35869 11-848): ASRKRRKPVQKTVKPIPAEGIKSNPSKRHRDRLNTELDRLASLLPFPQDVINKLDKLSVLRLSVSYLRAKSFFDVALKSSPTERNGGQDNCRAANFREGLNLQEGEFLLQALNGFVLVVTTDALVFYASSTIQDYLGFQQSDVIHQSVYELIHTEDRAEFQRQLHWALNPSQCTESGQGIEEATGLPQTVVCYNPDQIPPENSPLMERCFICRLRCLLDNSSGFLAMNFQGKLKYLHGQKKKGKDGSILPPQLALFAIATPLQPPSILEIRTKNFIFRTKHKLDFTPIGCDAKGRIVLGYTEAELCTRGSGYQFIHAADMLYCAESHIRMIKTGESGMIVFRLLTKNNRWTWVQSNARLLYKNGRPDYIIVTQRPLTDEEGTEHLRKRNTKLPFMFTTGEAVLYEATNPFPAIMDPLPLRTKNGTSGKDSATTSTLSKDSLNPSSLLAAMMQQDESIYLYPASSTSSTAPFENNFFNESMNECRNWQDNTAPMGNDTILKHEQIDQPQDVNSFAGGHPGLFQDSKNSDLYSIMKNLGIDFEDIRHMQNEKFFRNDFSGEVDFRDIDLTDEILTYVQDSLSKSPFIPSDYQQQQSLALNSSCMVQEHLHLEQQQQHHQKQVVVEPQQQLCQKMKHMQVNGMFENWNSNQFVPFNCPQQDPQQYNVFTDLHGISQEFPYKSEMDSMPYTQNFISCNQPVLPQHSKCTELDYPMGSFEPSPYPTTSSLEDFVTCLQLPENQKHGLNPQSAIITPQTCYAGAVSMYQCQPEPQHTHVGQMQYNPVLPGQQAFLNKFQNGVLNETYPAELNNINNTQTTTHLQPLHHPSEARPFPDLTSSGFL
Briefly: AhR/XRE-dependent luciferase reporter gene assay in XRE-HepG2 cells. Conditions: for EC50: 8 h; for AhR-dependent reporter gene activity on co-treatment with BaP: preliminary data. It is filed as cell-based.

Data set [2] deals with HaCaT cells. The data set can be described thus: UVA phototoxicity, caspase 3 activity in HaCaT cells. Format: cell-based, human. Conditions: HaCaT, 1 h, UVA 5 J/cm2. The protocol: Irradiation with UVA and caspase 3 activity measurement […]
culture media was exchanged with PBS and the cells were sham or UVA (5 J/cm2) irradiated using the BS-02 irradiation chamber (Opsytec Dr. Gröbel, Ettlingen Germany). Media was added to the cells and after 4 h incubation, caspase 3 activity was measured as described previously.[33] Protein quantification was done with the Bio-Rad DC protein assay kit (Bio-Rad Laboratories, Hercules, CA) according to the manufacturer protocol.
We compared the phototoxic potential of five of our test compounds (8, 10, 5b, 5h, 4b) as well as the FDA-approved AhR activator […]
induced caspase activity at a concentration of 100 nM (Figure S36A). At a 10-fold higher concentration (1 µM) two of the test compounds […]
Figure S36. […] For statistical analysis a two-way ANOVA (Tukey post-hoc) was performed and data are shown as mean ± SEM. (*, p ≤ 0.05). […]

Data set [3] in a line: Solubility in the growing media during cytotoxicity testing. It is filed as physicochemical. Conditions: concentration of 100 µM. The protocol: A phosphatidylserine exposure was used to determine cell viability. Cells were washed with PBS, pelleted, and then incubated with annexin binding buffer containing Annexin V-APC (Life Technologies) for 15 min in the dark. Then, samples were analyzed by flow cytometry using FACSCanto II and FACSDiva (BD Biosciences, Franklin Lakes, NJ, USA). Data represents the percentage of non - apoptotic cells (Ann -APC-).
The cytotoxicity of a selection of the synthesized compounds was assessed after 24 hours of treatment in two human cell lines, Jurkat and HEK293T, coming from either tumoral T-cell lymphocytes or non-tumoral embryonic kidney fibroblasts, respectively. […]
the pro-apoptotic activity was not significant below 10 µM for most compounds in both cell lines, except for 5i, 5k and 5l in both cell lines, as well as 9a in Jurkat and 5e HEK293T cells (Figure S35A-B).
Moreover, the cytotoxicity of compounds 4d, 5b, 5h, 8, 10, and 12d at a higher concentration (100 µM) was assessed in both cell lines, Jurkat and HEK293T. The cytotoxicity of compounds 5b, 5h, and 12d could not be properly tested as the compounds were not soluble […]
effects observed for compound 4d in Jurkat cells and compound 8 in HEK293T cells (Figure S35C).
Figure S35. A) Jurkat and B) HEK293T cells were treated with 1 and 10 µM doses of the corresponding compound for 24 hours. Indicated doses of fluorizoline were used as a positive control of cell death. C) Jurkat and HEK293T cells were treated with 100 µM of the corresponding compound for 24 hours. Viability was measured by flow cytometry, and it is expressed as the mean ± SEM (n = 3) of the percentage of non -apoptotic cells (Ann-APC-). * p < 0.05, ** p < 0.01 *** p < […]
(1 picture or pasted object on this page, not shown here)

Setting [4] is: XRE-HepG2 cells, unit as in the supplements, read-out: AhR/XRE-dependent luciferase activity EC50.
Setting [5] is: XRE-HepG2 hepatoma cells, luciferase activity, read-out: AhR/XRE-dependent reporter gene activity (EC50).

Like-named read-outs stand apart in the source and are kept apart here.

As to `O=c1oc2ccccc2c(O)c1-c1c2[nH]c3ccccc3c2cc2[nH]c3ccccc3c12` [4c], the EC50 in data set [1] (setting [4]) turned out to be 4.51 µM.

Consider `OCc1[nH]c2ccccc2c1-c1c2[nH]c3ccccc3c2cc2[nH]c3ccccc3c12` [5g], for which the EC50 in data set [1] (setting [4]) was determined as 1.82 µM.

`c1ccc2c(-c3c4[nH]c5ccccc5c4cc4[nH]c5ccccc5c34)c[nH]c2c1` [5c]: the EC50 in data set [1] (setting [5]) is 0.36 µM.

In the case of `Cc1cccc2c(-c3c4[nH]c5ccccc5c4cc4[nH]c5ccccc5c34)c[nH]c12` [5i], the EC50 in data set [1] (setting [4]) was determined as 0.45 µM.

As for `CS(=O)(=O)Nc1ccc(-c2ccc3[nH]cc(-c4c5[nH]c6ccccc6c5cc5[nH]c6ccccc6c45)c3c2)cc1` [9a], the EC50 in data set [1] (setting [4]) was 0.1 µM.

Turning to `O=C1OCC(O)=C1c1c2[nH]c3ccccc3c2cc2[nH]c3ccccc3c12` [4b], the results for the “UVA radiation-induced caspase activity (phototoxicity)” value in data set [2] (100 nM) and in data set [2] (1 µM) were “neither tapinarof nor our 6-ICZ compounds enhanced” and “did not show any signs of phototoxicity”, respectively. For the same compound, the EC50 in data set [1] (setting [4]) was above 10 µM. The “AhR-dependent reporter gene activity on co-treatment with BaP” value in data set [1] is listed as “synergistic effects”.

As to `CCCCCNC(=O)c1ccc2c(-c3c4[nH]c5ccccc5c4cc4[nH]c5ccccc5c34)c[nH]c2c1` [12a], the EC50 in data set [1] (setting [5]) came out at 0.4 µM.

Regarding `COc1ccc2[nH]c3c(-c4c(C)[nH]c5ccccc45)c4c(cc3c2c1)[nH]c1ccc(OC)cc14` [5l], in data set [1] (setting [4]), the EC50 is 0.63 µM.

Consider `c1ccc(-c2[nH]c3ccccc3c2-c2c3[nH]c4ccccc4c3cc3[nH]c4ccccc4c23)cc1` [5f], for which, in data set [1] (setting [4]), the EC50 is 1.17 µM.

For `CC(C)c1c(O)cc(/C=C/c2ccccc2)cc1O` [Tapinarof, tapinarof, reference compound], the “UVA radiation-induced caspase activity (phototoxicity)” value in data set [2] (100 nM) is recorded as “neither tapinarof nor our 6-ICZ compounds enhanced”; in data set [2] (1 µM) it was “did not show any signs of phototoxicity”.

On to `Clc1cc2c(cc1Cl)Oc1cc(Cl)c(Cl)cc1O2` [TCDD, 2,3,7,8-tetrachlorodibenzodioxin, reference compound], for which the EC50 in data set [1] (setting [4]) turned out to be 0.003 µM.

For the compound `Cc1[nH]c2ccccc2c1-c1c2c3ccccc3n(C)c2cc2c3ccccc3n(C)c12` [5j], the EC50 in data set [1] (setting [4]) was found to be 1.2 µM. Further, the “reduction of activity compared to N,N′-H analog 5e” value in data set [1] (from reporter gene EC50 values) was 2.3 fold.

Turning to `Brc1ccc2[nH]cc(-c3c4[nH]c5ccccc5c4cc4[nH]c5ccccc5c34)c2c1` [5b], the “UVA radiation-induced caspase activity (phototoxicity)” value in data set [2] (100 nM) was “neither tapinarof nor our 6-ICZ compounds enhanced”; in data set [2] (1 µM) it was “exhibited similar effects to FICZ”. Also, in data set [1] (setting [4]), the EC50 worked out at 0.94 µM. Moreover, the “solubility in the growing media” value in data set [3] is listed as “not soluble”.

As to `Cc1ccc(C#Cc2ccc3[nH]cc(-c4c5[nH]c6ccccc6c5cc5[nH]c6ccccc6c45)c3c2)cc1` [9b], the EC50 in data set [1] (setting [4]) was above 10 µM. Moreover, the “AhR-dependent reporter gene activity on co-treatment with BaP” value in data set [1] is recorded as “synergistic effects”.

Take `O=C(NCCCCCCCCCCNC(=O)c1ccc2c(-c3c4[nH]c5ccccc5c4cc4[nH]c5ccccc5c34)c[nH]c2c1)c1ccc2c(-c3c4[nH]c5ccccc5c4cc4[nH]c5ccccc5c34)c[nH]c2c1` [12c]: the EC50 in data set [1] (setting [4]) is 6.06 µM.

On to `Cc1cccc2[nH]cc(-c3c4[nH]c5ccccc5c4cc4[nH]c5ccccc5c34)c12` [5h], for which the “UVA radiation-induced caspase activity (phototoxicity)” value in data set [2] (100 nM) is “neither tapinarof nor our 6-ICZ compounds enhanced”. Also, the EC50 in data set [1] (setting [4]) is 0.57 µM. Also, the “solubility in the growing media” value in data set [3] is “not soluble”.

For `O=C(NCCCOCCOCCOCCCNC(=O)c1ccc2c(-c3c4[nH]c5ccccc5c4cc4[nH]c5ccccc5c34)c[nH]c2c1)c1ccc2c(-c3c4[nH]c5ccccc5c4cc4[nH]c5ccccc5c34)c[nH]c2c1` [12d], the EC50 in data set [1] (setting [4]) is above 10 µM. Moreover, in data set [3], the “solubility in the growing media” value is listed as “not soluble”.

Consider `CC1(C)CC(=O)C(c2c3[nH]c4ccccc4c3cc3[nH]c4ccccc4c23)=C(O)C1` [4a], for which the EC50 in data set [1] (setting [4]) amounted to 2.25 µM.

In the case of `O=C(O)c1ccc2c(-c3c4[nH]c5ccccc5c4cc4[nH]c5ccccc5c34)c[nH]c2c1` [5m], in data set [1] (setting [4]), the EC50 was above 10 µM.
